In this test the test system is MDA-MB-435 cytotoxicity with apoptosis inducers, ATPlite, 24 h. Briefly: PubChem AID 1774. Conditions: stronger effect = higher value.

Molecules are shown by their SMILES. Active and inactive are the calls of the source. No rule for the calls is given here.

In the case of `CSc1nc(-c2ccc(C)cc2)nc(C(Cl)Cl)n1`, the cytotoxicity is, setting by setting: (at 5 µM) -11% (inactive); (compound alone 2.5 uM, at 2.5 µM) -19%; (plus doxorubicin 50 ug/mL, at 5 µM) 30%; (plus doxorubicin 100 ug/mL, at 5 µM) 75%; (plus etoposide 50 uM, at 5 µM) 18%; (plus etoposide 100 uM, at 5 µM) 14%. Moreover, the cytotoxicity runs as follows: (plus thapsigargin 3 uM, at 5 µM) 17%; (plus thapsigargin 10 uM, at 5 µM) -7%; (plus tunicamycin 10 ug/mL, at 5 µM) 10%; (plus tunicamycin 30 ug/mL, at 5 µM) 16%.

The record behind these values is PubChem BioAssay AID1774 (Sanford-Burnham Center for Chemical Genomics, 2009).
